We go through three compounds from US20220089638A1, “DITHIOCARBAMATE STAPLED PEPTIDES AND METHODS OF MAKING AND USE THEREOF” (UNIVERSITY OF MARYLAND, BALTIMORE, priority 2019, published 2022).

In series [1] the test system is HCT116 p53^+/+ cells. Nature of the series: Cellular uptake by confocal microscopy. The class given is cell-based, human. The following applies: FITC-labeled peptide, 20 μM, 4 h. How it is done:
Cellular uptake of ^DTCPMI. […] Cells were then incubated with 20 μM FITC-^DTCPMI Ctrl. or FITC-^DTCPMI for 4 h. Cells were washed with Dulbecco's phosphate buffered saline, fixed with 4% (wt/vol) paraformaldehyde, finally incubated by DAPI to stain the cell nucleus. Imaged using an LSM 510 Zeiss Axiovert 200M (v4.0) confocal microscope. Images were analyzed using an LSM image browser.

Another series relates to HCT116 p53^+/+. Nature of the series: Cell viability assay (CCK8), HCT116 p53+/+. The class given is cell-based, human. Conditions: concentrations of up to 50 μM.
The test system of the next series is HCT116 p53^−/−. The series can be described thus: Cell viability assay (CCK8), HCT116 p53-/-. The class given is cell-based, human.
The nature of series [2]: Circular dichroism spectroscopy, percent α-helix. The format is physicochemical. The following applies: CD spectroscopy. From the text:
Circular Dichroism (CD) Spectroscopy.

The test system of series [3] is p53, MDM2 and p21 in HCT116 p53^+/+ cells. Nature of the series: Western blot analysis of MDM2, p21 and p53 expression. The format is cell-based, human. The following applies: 8 h after treatment, 10, 20, 30 μM. How it is done:
Western Blot Analysis. […] The cells were lysed (20 mM Tris-HCl pH 8.0, 0.8% SDS, 1 mM PMSF, 1 U mL^−1 benzonase nuclease) and the crude lysates were clarified by brief centrifugation and total protein concentration was determined by using the Pierce BCA protein assay. Aliquots containing 5 μg of total protein were run on 4-12% Bis-Tris polyacrylamide gels (Invitrogen).

The next series deals with HCT116 p53^−/− cells. The series can be described thus: Cell apoptosis assay (annexin V-FITC/PI flow cytometry), HCT116 p53-/-. The class given is cell-based, human. The following applies: identical treatment conditions, 10, 20, or 30 μM. The procedure:
(§1) Cell Apoptosis Assay. […] No treatment controls were established. Culture medium that may contain detached cells was collected, and attached cells were trypsinized. After centrifugation and removal of the supernatants, cells were resuspended in 300 μL of 1×binding buffer which was then added to 5 μL of annexin V-FITC and incubated at room temperature for 15 min. After addition of 10 μL of PI, the cells were incubated at room temperature for another 10 min in the dark. The stained cells were analyzed by a flow cytometer (BD-FACSVerse).
For orientation: Flow cytometry measures light scatter and fluorescence of single cells or particles in a stream.

In series [4] the test system is HCT116 p53^+/+ cells. Nature of the series: Cell apoptosis assay (annexin V-FITC/PI flow cytometry), HCT116 p53+/+. Conditions: 10, 20, or 30 μM. The format is cell-based, human. The procedure:
as §1

Series [5] can be described thus: Comparison of solubility between DTC and hydrocarbon link (OD 600 nm in PBS). The class given is physicochemical. The following applies: PBS buffer, 2-fold serial dilution from 20 mg/ml, OD at 600 nm. How it is done: Comparison of Solubility between DTC and Hydrocarbon link. […] OD values were measured at 600 nm on a Biotech Synergy 4 plate reader. PBS was set as blank control.

Each structure is given as a SMILES string. Where a SMILES comes first, the peptide text is derived from it. Bridges are numbered along the chain shown (N, C = ends). [ ]: non-standard residue; d: D form. S5 = C=CCCC[C@](C)(N)C(=O)O

As usually defined, the solubility is the concentration that dissolves in the medium under given conditions.

Consider `CC(=O)N[C@H](C(=O)N[C@@H](CO)C(=O)N[C@@H](Cc1ccccc1)C(=O)N[C@@H](CCCCN)C(=O)N[C@@H](CCC(N)=O)C(=O)N[C@@H](Cc1ccc(O)cc1)C(=O)N[C@@H](Cc1c[nH]c2ccccc12)C(=O)N[C@@H](CS)C(=O)N[C@@H](CC(C)C)C(=O)N[C@@H](CC(C)C)C(=O)N[C@@H](CO)C(=O)N[C@@H](CCCNC(=N)N)C(N)=O)[C@@H](C)O` [^DTCPMI Ctrl., reference compound], for which the “intracellular localization / cellular uptake (confocal microscopy)” value with HCT116 p53^+/+ cells [1] is “diffused intracellular localization, demonstrating efficient cellular uptake”. In addition, the “anti-proliferative activity against HCT116 p53+/+” value in the series on HCT116 p53^+/+ is “no anti-proliferative activity”. Moreover, the “anti-proliferative activity against HCT116 p53-/-” value in the series on HCT116 p53^−/− (concentrations of up to 50 μM) is reported as “no anti-proliferative activity”. Besides, the “α-helix (%)” value in series [2] (Table 7) stood at 16.6%.
For `CC(=O)N[C@H](C(=O)N[C@@H](CO)C(=O)N[C@@H](Cc1ccccc1)C(=O)N[C@H]1CCCCNC(=S)SC[C@@H](C(=O)N[C@@H](CC(C)C)C(=O)N[C@@H](CC(C)C)C(=O)N[C@@H](CO)C(=O)N[C@@H](CCCNC(=N)N)C(N)=O)NC(=O)[C@H](Cc2c[nH]c3ccccc23)NC(=O)[C@H](Cc2ccc(O)cc2)NC(=O)[C@H](CCC(N)=O)NC1=O)[C@@H](C)O` [^DTCPMI], the “intracellular localization / cellular uptake (confocal microscopy)” value in the series on HCT116 p53^+/+ cells [1] was “diffused intracellular localization, demonstrating efficient cellular uptake”. Further, in series [3], the “induction of p53, MDM2 and p21 (Western blotting)” value is “dose-dependent induction of p53, MDM2 and p21”. Moreover, the “cell viability of HCT116 p53-/- cells at high concentration” value in the series on HCT116 p53^−/− (100 μM) is recorded as “significantly reduced cell viability”. Moreover, the “apoptosis of HCT116 p53-/- cells (FACS)” value with HCT116 p53^−/− cells is recorded as “no obvious apoptosis”. The entries for the “α-helix (%)” value in series [2] (Table 3) and in series [2] (Table 7) were 76% and 62.2%, respectively. Moreover, the “induction of apoptosis of HCT116 p53+/+ cells (FACS)” value in the series on HCT116 p53^+/+ cells [4] is recorded as “dose-dependent induction of apoptosis”.
For `CC(=O)N[C@H](C(=O)N[C@@H](CO)C(=O)N[C@@H](Cc1ccccc1)C(=O)N[C@@]1(C)CCCC=CCCC[C@@](C)(C(=O)N[C@@H](CC(C)C)C(=O)N[C@@H](CC(C)C)C(=O)N[C@@H](CO)C(=O)N[C@@H](CCCNC(=N)N)C(N)=O)NC(=O)[C@H](Cc2c[nH]c3ccccc23)NC(=O)[C@H](Cc2ccc(O)cc2)NC(=O)[C@H](CCC(N)=O)NC1=O)[C@@H](C)O` [^HCPMI] (Ac-TSF[S5]QYW[S5]LLSR-NH2; staple 4-8), the solubility in series [5] was no less than 300 µg/mL.
